Results on one molecule are retold here after patent US20250147006A1, “MULTI-DEPTH SPIRAL MILLI FLUIDIC DEVICE FOR WHOLE MOUNT ZEBRAFISH ANTIBODY STAINING” (THE REGENTS OF THE UNIVERSITY OF CALIFORNIA, priority 2023, published 2025).

Molecules are shown by their SMILES. ≈ marks a conversion by molar mass, not a printed value. Like-named read-outs stand apart in the source and are kept apart here.

The test system of series [1] is zebrafish embryos. The series can be described thus: animal or person. The note with it: Danio rerio, 2 h, read-out: absolute EC50 (50% effective concentration), tail curvature.
Series [2] has as its system zebrafish embryos. The note with it: 24-well plate.
Series [3] has as its system zebrafish embryos. The note with it: for EC50: Danio rerio, 2 h.

As to `Cn1c(=O)c2c(ncn2C)n(C)c1=O` [caffeine], the EC50 with zebrafish embryos [1] was 690 µg/mL (≈ 3.56 mM); in the series with zebrafish embryos [3] (read-out: absolute EC50, tail curvature, CGG, measured concentrations (trypan blue intensity), highest inner wall inlet flowrate (150 μl/min), outer wall 300 μl/min, 2-hour treatment), 987 µg/mL (≈ 5.08 mM); in the series with zebrafish embryos [3] (read-out: absolute EC50, tail curvature, CGG, measured concentrations (trypan blue intensity), lowest inner wall inlet flowrate (75 μl/min), outer wall 300 μl/min, 2-hour treatment) it was 993 µg/mL (≈ 5.11 mM); with zebrafish embryos [3] (read-out: absolute EC50, tail curvature, CGG, measured concentrations (trypan blue intensity), middle inner wall inlet flowrate (100 μl/min), outer wall 300 μl/min, 2-hour treatment), 1080 µg/mL (≈ 5.56 mM); with zebrafish embryos [3] (read-out: absolute EC50, tail curvature, CGG, simulated concentrations, highest inner wall inlet flowrate (150 μl/min), outer wall 300 μl/min, 2-hour treatment) it was 1210 µg/mL (≈ 6.22 mM); in the series on zebrafish embryos [3] (read-out: absolute EC50, tail curvature, CGG, simulated concentrations, lowest inner wall inlet flowrate (75 μl/min), outer wall 300 μl/min, 2-hour treatment), 1180 µg/mL (≈ 6.05 mM). In the series with zebrafish embryos [3] (read-out: absolute EC50, tail curvature, CGG, simulated concentrations, middle inner wall inlet flowrate (100 μl/min), outer wall 300 μl/min, 2-hour treatment), the EC50 was 1220 µg/mL (≈ 6.28 mM). Also, the “frequency of tail curvature (scoliosis)” value with zebrafish embryos [2] (after 2-hour caffeine treatment) is on record as “concentration dependent”. Also, the “recovery of embryos with tail curvature” value with zebrafish embryos [2] (after 24 hours culturing in E3 buffer) is reported as “recovered to normal”. Further, the “zebrafish embryo survival rate at the end of the experiment” value in the series on zebrafish embryos [2] (all caffeine concentrations 0.0325-2 mg/mL, 2-hour treatment and 24-hour recovery) is recorded as “over 90%”. The “zebrafish embryo survival rate” value in the series with zebrafish embryos [3] (CGG, 2-hour treatment and 24-hour recovery, compared with well plate) is recorded as “close to the zebrafish embryo tested in the well plate”. Also, the “hillslope of dose-response curves, tail curvature” value in the series with zebrafish embryos [3] (CGG, 3 gradients, 2-hour treatment, compared with well plate) is given as “greater than the hillslope of well plate-based dose-response curves”. Also, the “overall frequency of edema occurrences” value with zebrafish embryos [3] (CGG, after 24-hour recovery at 2 ml/min, compared with well plate) is listed as “significantly higher in the CGG than in the well plate”.
